{"source": "patent US5783201A", "about": "“Method for treating non-ocular epithelial disorders via increasing heme oxygenase levels and/or decreasing levels of arachidonic acid derivatives” (Hemogen, Inc., priority 1997, dated 1998)", "test_system": "heme oxygenase", "test": "microsomal heme oxygenase activity in CCD-860SK skin fibroblast cells", "type": "cell-based, human", "conditions": "100 μM; CCD-860 skin fibroblast cells, collected after two hours; mean ± SD; control 294 ± 18", "procedure": "Cell line CCD-860SK is a human skin fibroblast cell line which is publicly available from the American Type Culture Collection. Cell cultures of this line were propagated in Iscove's modified Dulbecco's medium supplemented with 10% fetal bovine […]. Following propagation, they were grown in 175 cm^2 Falcon tissue culture flasks, using Iscove's modified Dulbecco's medium, supplemented with 10% (v/v) heat inactivated fetal bovine serum, 50 U penicillin/ml, 50 ug streptomycin/ml, and 2 mM glutamine. The cells were then seeded into culture flasks at a concentration of 1×10^5 cells/ml, and incubated at 37° C. in a humidified 5% CO2 /95% air chamber. After three days, old media were removed, and replaced with fresh media. […]\nTo measure total enzyme activity, microsomes were prepared as described by Tenhunen et al., J. Biol. Chem. 244: 6388-6394 (1969), incorporated by reference herein. The activity of microsomal heme oxygenase was then determined, using 0.5-1 mg protein in an incubation medium as described by Tenhunen et al., supra. Total protein was then determined using the classic method of Lowry et al., J. Biol. Chem. 193: […] (1951), using bovine serum albumin as standard.", "data": [{"compound": "[Cl][Sn][Cl]", "note": "[SnCl2]", "values": [{"measurement": "Heme oxygenase", "value": "802 ± 49", "unit": "pmol bilirubin/mg/hr"}]}]}
